According to patent US10961189B2, “Spiro-lactam NMDA receptor modulators and uses thereof” (Aptinyx Inc., priority 2016, dated 2021):
Read-outs that look alike come from different tables or passages of the source.

Legend:
IV pharmacokinetics = format: in vivo, Sprague Dawley rats; settings: rat, normal saline (* in 5% NMP, 5% Solutol HS, 90% normal saline); for Vd: read-out: Vss
From the text: The table below summarizes the results of the IV pharmacokinetics.

Sprague Dawley rats = assay: Bennett model of mechanical analgesia (sciatic nerve chronic constriction, paw withdrawal threshold); format: in vivo, rat;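 further: log paw withdrawal threshold scaled from vehicle group mean (0%) to naive 15 g value (100%)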
Description: The Bennett model of mechanical analgesia is used to assess the analgesic effects of compounds as measured by paw withdrawal threshold. Bennett GJ, Xie YK, “A peripheral mononeuropathy in rat that produces disorders of pain sensation like those seen in man,” Pain 33:87-107, 1988. […] Vehicle animals receive the surgery and then receive vehicle rather than test compound. Animals were tested 1 hr, 24 h and 1 wk post-test compound or vehicle administration.
Male 2-3 month old Sprague Dawley rats were used. Harlan was the supplier for all studies. Rats were housed in Lucite cages with aspen wood chip bedding, maintained on a 12:12 light:dark cycle (lights on at 5 AM), and given ad libitum access to Purina lab chow (USA) and tap water throughout the study.
Rats were anesthetized using inhaled isoflurane (2.5%). Sciatic nerve chronic constriction nerve injury surgery was performed as previously described (Bennett and Xie, 1988). An incision (˜1.5 cm in length) was made with a scalpel blade dorsally through skin on the right hind limb, parallel and posterior to femur. Using a small pointed hemostat, the biceps femoris and gluteus superficialis muscles were separated. Using curved blunt forceps, the common sciatic nerve was isolated and exposed. For the mechanical analgesia studies, the whole sciatic nerve was ligated. Using hemostats/forceps and chromic gut (5-0), the nerve was loosely ligated with a square knot; 3 ligatures, 1 mm apart were placed on the nerve. […] Testing occurred approximately 2 weeks post-surgery.
During testing, rats were acclimated to the surface of a suspended wire mesh grid (1 cm×1 cm, with the wire being 0.3 cm in diameter) for 15-20 min. Starting from the smallest, each Von Frey filament was pressed perpendicularly to the plantar surface of the affected (ipsilateral) hind paw until slightly bent and then held for 6 second. If an obvious hind paw withdrawal or a flinching behavior immediately after the withdrawal of the filament was not observed, the next larger filament was used in the same manner. In case of a response, a lower filament was used. This was repeated until six responses were collected.
For all studies, animals were baselined prior to study start to test for allodynia (defined as a paw withdrawal threshold under 5). A subset of animals was tested with gabapentin (150 mg/kg, PO) to ensure at least 50% analgesia. Once it was confirmed animals were ready for study initiation, animals were balanced across groups. All study investigators were blind to treatment conditions. Animals were dosed with 0.1, 1 or 10 mg/kg of test compound via oral gavage (PO), control sets of animals were dosed with gabapentin (150 mg/kg, PO) or vehicle (0.5% Na-CMC in 0.9% sterile saline, PO). Testing occurred 1 h post-dosing with animals retested 24 hrs and 1 week post-dosing. The percent analgesia calculations for each animal were made using the following equation: % analgesia=[(log(x)−y)/((log (z)−y)]*100, where x=the paw withdrawal threshold for the drug-treated animal in grams, y=the average of the log(x) values for the vehicle treated group, and z=the paw withdrawal threshold for naïve animals in grams (historical value of 15 used).
The results are shown in the table below where the percentage of analgesia is measured at 1 hour, 24 hours, and 1 week after compound administration. Since each study had its own gabapentin control group, an example gabapentin control value is shown.

rats = assay: positive emotional learning (PEL) test, 50-kHz ultrasonic vocalizations; format: in vivo, rat; settings: PO, one hour after administration
Description: Experiments were conducted as described in Burgdorf et al., “The effect of selective breeding for differential rates of 50-kHz ultrasonic vocalizations on emotional behavior in rats,” Devel. Psychobiol., 51:34-46 (2009). Rat 50-kHz ultrasonic vocalization (hedonic USVs) is a validated model for the study of positive affective state and is best elicited by rough-and-tumble play.
The PEL assay measures the acquisition of positive (hedonic) 50-kHz ultrasonic vocalizations (USVs) to a social stimulus, heterospecific rough and tumble play stimulation. Heterospecific rough-and-tumble play stimulation was administered by the experimenter's right hand. One hour after administration of test compound or vehicle negative control (0.5% sodium carboxymethyl cellulose in […] sterile saline), animals received 3 min of heterospecific rough-and-tumble play that consisted of alternating 15 sec blocks of heterospecific play and 15 sec of no-stimulation. High frequency ultrasonic vocalizations (USVs) were recorded and analyzed by sonogram with Avasoft SASlab Pro (Germany) as previously described by Burgdorf et al., “Positive emotional learning is regulated in the medial prefrontal cortex by GluN2B-containing NMDA receptors,” Neuroscience, 192:515-523 (2011). Frequency modulated 50-kHz USVs that occurred during each of the no-stimulation periods were quantified to measure PEL. Animals were not habituated to play stimulation before testing. Positive emotional learning was measured during the conditioned stimulus (CS) trials preceding the tickle unconditioned stimulus (UCS) trials. Animals received 15 second trials consisting of 6 CS and 6 UCS trials each (3 min total).
The table below summarizes the findings. As each experiment includes its own vehicle group, an example (typical) vehicle score is shown. Max effect (mean number of 50 kHz USVs per 15 seconds) is reported as ^: <6.0; *: 6-10.9; **: 11-16.9; ***: 17-22.

[1] = oral pharmacokinetics (plasma, brain, CSF); format: in vivo, Sprague Dawley rats; settings: rat, per os 10 mg/kg; for AUC(0-t) / bioavailability / Tmax / Cmax: Sprague-Dawley, plasma, po; for Tmax: normal saline (* in 5% NMP, 5% Solutol HS, 90% normal saline), read-out: Tmax; for Cmax: read-out: Cmax
Description: In another experiment, Sprague Dawley rats were dosed per os using a normal saline formulation containing 10 mg/kg of the compounds identified in the table below (except for the compounds marked with an asterisk (“*”) that were delivered in 5% NMP, 5% Solutol® HS and 90% normal saline formulation). Plasma, brain, and CSF samples were analyzed at various time points over a 24 hour period.

[2] = Sprague-Dawley, in vivo, iv, 2 mg/kg
[3] = Sprague-Dawley, in vivo, iv, 2 mg/kg, read-out: C0
[4] = Sprague-Dawley, in vivo, intravenous 2 mg/kg

| Compound | AUC(0-t) (IV pharmacokinetics; [2]) [µg·h/mL] | half-life (IV pharmacokinetics; [2]) [min] | C0 (IV pharmacokinetics; [3]) [µg/mL] | CI (IV pharmacokinetics; intravenous 2 mg/kg) [L/h/kg] | % analgesia (Sprague Dawley rats; 0.1 mg/kg PO, 1 wk) [%] | % analgesia (Sprague Dawley rats; 0.1 mg/kg PO, 1 h) [%] | % analgesia (Sprague Dawley rats; 0.1 mg/kg PO, 24 h) [%] | % analgesia (Sprague Dawley rats; 1 mg/kg PO, 1 wk) [%] | % analgesia (Sprague Dawley rats; 1 mg/kg PO, 1 h) [%] | % analgesia (Sprague Dawley rats; 1 mg/kg PO, 24 h) [%] | % analgesia (Sprague Dawley rats; 10 mg/kg PO, 1 wk) [%] | % analgesia (Sprague Dawley rats; 10 mg/kg PO, 1 h) [%] | % analgesia (Sprague Dawley rats; 10 mg/kg PO, 24 h) [%] | Max Effect (mean number of 50 kHz USVs per 15 seconds) (rats; dose .001-1 mg/kg) | AUC(0-t) ([1]; 10 mg/kg) [µg·h/mL] | bioavailability ([1]; 10 mg/kg) [%] | Tmax ([1]; 10 mg/kg) [min] | Cmax ([1]; 10 mg/kg) [µg/mL] | CSF Cmax [1] [µg/mL] | Brain Cmax [1] [µg/mL] | other results |
| --- | --- | --- | --- | --- | --- | --- | --- | --- | --- | --- | --- | --- | --- | --- | --- | --- | --- | --- | --- | --- | --- |
| CC1CCC2(CC1)CNC2=O (racemic) [Compound AD, 7-methyl-2-azaspiro[3.5]nonan-1-one] | 1.36 | 47.4 | 2.06 | 1.474 | 0 | 18.4 | 4.7 | 17.9 | 15.4 | 13.8 | 15.5 | 15.3 | 7.6 | *** (***: 17-22) | 4.58 | 67 | 25.2 | 2.03 | 1.0092 | 1.8322 | Vd (IV pharmacokinetics; [2]): 0.97 L/kg |
| O=C1NCC12CCC(OCc1ccccc1)CC2 (single isomer, unassigned) [AI, 7-(benzyloxy)-2-azaspiro[3.5]nonan-1-one] | 1.26 | 82.2 | 4.33 | 1.571 | 7.7 | 5.3 | 7.7 | 10.2 | 40.4 | 23.4 | 22.0 | 50.0 | 33.2 | ** (**: 11-16.9) | 5.9 | 94 | 30 | 3.97 | 0.26917 | 1.0879 | Vd (IV pharmacokinetics; [2]): 0.75 L/kg |
| C[C@@H](O)[C@H](NC1CCC2(CC1)CNC2=O)C(N)=O (single isomer, unassigned) [AP] | – | – | – | – | – | – | – | – | – | – | 0 | 28.0 | 0 | – | 2.05 | 15 | 120 | 0.625 | 0.08046 | 0 | AUClast (IV pharmacokinetics; intravenous 2 mg/kg, 2 mg/kg): 2.941 µg·h/mL; C0 (IV pharmacokinetics; intravenous 2 mg/kg, 2 mg/kg): 6.4204 µg/mL; CI (IV pharmacokinetics; intravenous 2 mg/kg, 2 mg/kg): 0.6726 L/h/kg; T1/2 (IV pharmacokinetics; intravenous 2 mg/kg, 2 mg/kg): 166 min; Vss (IV pharmacokinetics; intravenous 2 mg/kg, 2 mg/kg): 0.92 L/kg; Max Effect (mean number of 50 kHz USVs per 15 seconds) (rats; dose .1 mg/kg): ** (**: 11-16.9) |
| COc1ccc(CN2CC3(CCC(O)CC3)C2=O)cc1 (stereo not drawn) [AG] | – | – | – | 3.082 | 1.7 | 26.7 | 14.8 | 0 | 41.5 | 23.7 | 0 | 56.9 | 26.7 | ** (**: 11-16.9) | – | – | – | – | 0.2173 | 0.30749 | AUC(0-t) (IV pharmacokinetics; [4]): 0.65 µg·h/mL; half-life (IV pharmacokinetics; [4]): 24 min; C0 (IV pharmacokinetics; Sprague-Dawley, in vivo, intravenous 2 mg/kg, read-out: C0): 2.65 µg/mL; Vd (IV pharmacokinetics; [4]): 0.7 L/kg; bioavailability [1]: 41%; Tmax [1]: 15 min; AUC(0-t) [1]: 1.33 µg·h/mL; Cmax [1]: 1.93 µg/mL |
| O=C1NCC12CCC(O)CC2 (stereo not drawn) [AL, 7-hydroxy-2-azaspiro[3.5]nonan-1-one] | 6.22 | 224 | 3.99 | 0.324 | 3.1 | 20.9 | 10.8 | 6.6 | 52.7 | 14.4 | 1.1 | 61.9 | 13.8 | ** (**: 11-16.9) | 19.3 | 97 | 60 | 9.48 | 7.532 | 3.672 | Vd (IV pharmacokinetics; [2]): 0.83 L/kg |
